Results on 25 compounds are retold here after patent US10865216B2, “Tricyclic Gyrase inhibitors” (MERCK SHARP & DOHME CORP., priority 2012, dated 2020).

The subject of one assay is S. aureus ATCC 13709. Nature of the assay: MIC, S. aureus ATCC 13709. The class given is cell-based. To be noted: S. aureus; Alamar Blue read after overnight incubation at 35° C. For orientation: Alamar Blue is a resazurin reagent that responds to reducing activity.
The next assay relates to E. coli ATCC 25922. Nature of the assay: MIC, E. coli ATCC 25922. Particulars: E. coli; Alamar Blue read after overnight incubation at 35° C. The class given is cell-based.

Converted amounts (≈) assume the structure as drawn. Bounds are passed on as bounds.

Consider `CNc1cc(F)cc2c1[nH]c1nc(Oc3cnc4cccnc4c3)nc(N3CC4(CC4N)C3)c12` (centres unmarked) [Compound 4.042], for which, in the assay on S. aureus ATCC 13709, the “MIC Sa” value is at most 0.5 µg/mL. Also, the “MIC Ec” value in the assay with E. coli ATCC 25922 was at most 0.5 µg/mL.

With `CNc1cc(F)cc2c1[nH]c1nc(Oc3cnc4cccnc4c3)nc(N3CC4CCNC4C3)c12` (centres unmarked) [Compound 4.044], in the assay with S. aureus ATCC 13709, the “MIC Sa” value was at most 0.5 µg/mL. Further, the “MIC Ec” value against E. coli ATCC 25922 is at most 0.5 µg/mL.

With `CNc1cc(F)cc2c1[nH]c1nc(Oc3cnc4cccnc4c3)nc(N3CC4CC(N)CC4C3)c12` (centres unmarked) [Compound 4.046], in the assay on S. aureus ATCC 13709, the “MIC Sa” value is at most 0.5 µg/mL. Further, in the assay on E. coli ATCC 25922, the “MIC Ec” value was determined as 1 µg/mL (≈ 2.06 µM).

For the compound `CNc1cc(F)cc2c1[nH]c1nc(Oc3cnc4cccnc4c3)nc(N3CC4NCCOC4C3)c12` (centres unmarked) [Compound 4.048], the “MIC Sa” value in the assay with S. aureus ATCC 13709 is at most 0.5 µg/mL. The “MIC Ec” value against E. coli ATCC 25922 was 1 µg/mL (≈ 2.06 µM).

Consider `CNc1cc(F)cc2c1[nH]c1nc(Oc3cncc(C#N)c3)nc(N3CC4C(N)C4C3)c12` (centres unmarked) [Compound 4.050], for which the “MIC Sa” value against S. aureus ATCC 13709 is at most 0.5 µg/mL. In addition, in the assay with E. coli ATCC 25922, the “MIC Ec” value was at most 0.5 µg/mL.

Take `CNc1cc(F)cc2c1[nH]c1nc(Oc3cncc(C#N)c3)nc(N3CC(N)C4(CC4)C3)c12` (centres unmarked) [Compound 4.051]: the “MIC Sa” value against S. aureus ATCC 13709 is at most 0.5 µg/mL. Also, the “MIC Ec” value against E. coli ATCC 25922 came out at 2 µg/mL (≈ 4.5 µM).

For `CNc1cc(F)cc2c1[nH]c1nc(Oc3cncc(C#N)c3)nc(N3CCC4(CC4N)C3)c12` (centres unmarked) [Compound 4.052], the “MIC Sa” value with S. aureus ATCC 13709 is at most 0.5 µg/mL. In addition, in the assay with E. coli ATCC 25922, the “MIC Ec” value is at most 0.5 µg/mL.

Turning to `CNc1cc(F)cc2c1[nH]c1nc(Oc3cncc(C#N)c3)nc(N3CC4CC(N)C4C3)c12` (centres unmarked) [Compound 4.053], the “MIC Sa” value in the assay on S. aureus ATCC 13709 is at most 0.5 µg/mL. In the assay on E. coli ATCC 25922, the “MIC Ec” value was at most 0.5 µg/mL.

Consider `CNc1cc(F)cc2c1[nH]c1nc(Oc3cncc(C#N)c3)nc(N3CC4(CCC4N)C3)c12` (centres unmarked) [Compound 4.054], for which the “MIC Sa” value against S. aureus ATCC 13709 is at most 0.5 µg/mL. The “MIC Ec” value in the assay with E. coli ATCC 25922 was at most 0.5 µg/mL.

For `CNc1cc(F)cc2c1[nH]c1nc(Oc3cncc(F)c3)nc(N3CC4C(N)C4C3)c12` (centres unmarked) [Compound 4.055], the “MIC Sa” value in the assay with S. aureus ATCC 13709 was at most 0.5 µg/mL. The “MIC Ec” value with E. coli ATCC 25922 was at most 0.5 µg/mL.

On to `CNc1cc(F)cc2c1[nH]c1nc(Oc3cncc(F)c3)nc(N3CC(N)C4(CC4)C3)c12` (centres unmarked) [Compound 4.056], for which, in the assay on S. aureus ATCC 13709, the “MIC Sa” value is at most 0.5 µg/mL. Also, the “MIC Ec” value against E. coli ATCC 25922 was at most 0.5 µg/mL.

For `CNc1cc(F)cc2c1[nH]c1nc(Oc3cncc(F)c3)nc(N3CC(N)C4(CC4)C3)c12` (centres unmarked) [Compound 4.057], the “MIC Sa” value in the assay on S. aureus ATCC 13709 was at most 0.5 µg/mL. Further, the “MIC Ec” value in the assay with E. coli ATCC 25922 is at most 0.5 µg/mL.

In the case of `CNc1cc(F)cc2c1[nH]c1nc(Oc3cncc(F)c3)nc(N3CC4(CCC4N)C3)c12` (centres unmarked) [Compound 4.061], the “MIC Sa” value against S. aureus ATCC 13709 was at most 0.5 µg/mL. Moreover, the “MIC Ec” value in the assay on E. coli ATCC 25922 was at most 0.5 µg/mL.

For `CNc1cc(F)cc2c1[nH]c1nc(Oc3cncc(F)c3)nc(N3CCC4(CC4N)C3)c12` (centres unmarked) [Compound 4.062], the “MIC Sa” value against S. aureus ATCC 13709 was at most 0.5 µg/mL. Besides, the “MIC Ec” value with E. coli ATCC 25922 was at most 0.5 µg/mL.

Consider `CNc1cc(F)cc2c1[nH]c1nc(Oc3cnc(C)nc3)nc(N3CC(N)C4(CC4)C3)c12` (centres unmarked) [Compound 4.065], for which the “MIC Sa” value in the assay with S. aureus ATCC 13709 was at most 0.5 µg/mL. The “MIC Ec” value against E. coli ATCC 25922 was at most 0.5 µg/mL.

For `CNc1cc(F)cc2c1[nH]c1nc(Oc3cnc(C)nc3)nc(N3CC4CNC4C3)c12` (centres unmarked) [Compound 4.067], in the assay on S. aureus ATCC 13709, the “MIC Sa” value is at most 0.5 µg/mL. Further, in the assay with E. coli ATCC 25922, the “MIC Ec” value was at most 0.5 µg/mL.

For `CNc1cc(F)cc2c1[nH]c1nc(Oc3cnc(C)nc3)nc(N3CC(N)C4(CC4)C3)c12` (centres unmarked) [Compound 4.068], in the assay with S. aureus ATCC 13709, the “MIC Sa” value is at most 0.5 µg/mL. The “MIC Ec” value against E. coli ATCC 25922 was at most 0.5 µg/mL.

As for `CNc1cc(F)cc2c1[nH]c1nc(Oc3cnc(C)nc3)nc(N3CCCC(N)CC3)c12` (centres unmarked) [Compound 4.071], in the assay with S. aureus ATCC 13709, the “MIC Sa” value is at most 0.5 µg/mL. In the assay on E. coli ATCC 25922, the “MIC Ec” value is 2 µg/mL (≈ 4.58 µM).

For `CNc1cc(F)cc2c1[nH]c1nc(Oc3cnc(C)nc3)nc(N3CC4C(C3)C4NC(=O)CN)c12` (centres unmarked) [Compound 4.078], the “MIC Sa” value in the assay on S. aureus ATCC 13709 is at most 0.5 µg/mL. Moreover, the “MIC Ec” value against E. coli ATCC 25922 is 8 µg/mL (≈ 16.8 µM).

On to `CNc1cc(F)cc2c1[nH]c1nc(Oc3cnc(C)nc3)nc(N3CC(C4(N)CC4)C3)c12` [Compound 4.080], for which, in the assay with S. aureus ATCC 13709, the “MIC Sa” value was at most 0.5 µg/mL. Besides, in the assay with E. coli ATCC 25922, the “MIC Ec” value worked out at 1 µg/mL (≈ 2.3 µM).

As to `CNc1cc(F)cc2c1[nH]c1nc(Oc3cnc(C)nc3)nc(N3CCC(C4(N)CC4)C3)c12` (centres unmarked) [Compound 4.083], in the assay on S. aureus ATCC 13709, the “MIC Sa” value was at most 0.5 µg/mL. Further, in the assay on E. coli ATCC 25922, the “MIC Ec” value is at most 0.5 µg/mL.

Take `CNc1cc(F)cc2c1[nH]c1nc(Oc3cnc(C)nc3)nc(N3CC(C)C(CN)C3)c12` (centres unmarked) [Compound 4.087]: the “MIC Sa” value in the assay on S. aureus ATCC 13709 was at most 0.5 µg/mL. Moreover, in the assay on E. coli ATCC 25922, the “MIC Ec” value came out at 1 µg/mL (≈ 2.29 µM).

On to `CNc1cc(F)cc2c1[nH]c1nc(Oc3cnc(C)nc3)nc(N3CCCC(C)(N)C3)c12` (centres unmarked) [Compound 4.088], for which the “MIC Sa” value with S. aureus ATCC 13709 is at most 0.5 µg/mL. The “MIC Ec” value against E. coli ATCC 25922 is 1 µg/mL (≈ 2.29 µM).

As to `CNc1cc(F)cc2c1[nH]c1nc(Oc3cnc(C)nc3)nc(N3C4CCC3CC(N)C4)c12` (centres unmarked) [Compound 4.091], the “MIC Sa” value against S. aureus ATCC 13709 is at most 0.5 µg/mL. Moreover, the “MIC Ec” value against E. coli ATCC 25922 stood at 1 µg/mL (≈ 2.23 µM).

For `CNc1cc(F)cc2c1[nH]c1nc(Oc3cnc(C)nc3)nc(N3CC4CCNC4C3)c12` (centres unmarked) [Compound 4.094], in the assay on S. aureus ATCC 13709, the “MIC Sa” value was at most 0.5 µg/mL. Besides, in the assay on E. coli ATCC 25922, the “MIC Ec” value is at most 0.5 µg/mL.
